Assay results: ChEMBL document CHEMBL1133817, “Discovery of novel, orally active dual NK1/NK2 antagonists” (Bioorg Med Chem Lett, 2001)
Each block holds one molecule with its values, some of them ahead of it. The source made the active and inactive calls. The rule behind the calls is not given here.

Key:
[1] = biological target: T1, Substance-K receptor (Oryctolagus cuniculus) (UniProt P79218); test: Binding constant towards Tachykinin receptor 2 using BANK as agonist on rabbit pulmonary artery tissues; NA is not active
T1 sequence (whole entry): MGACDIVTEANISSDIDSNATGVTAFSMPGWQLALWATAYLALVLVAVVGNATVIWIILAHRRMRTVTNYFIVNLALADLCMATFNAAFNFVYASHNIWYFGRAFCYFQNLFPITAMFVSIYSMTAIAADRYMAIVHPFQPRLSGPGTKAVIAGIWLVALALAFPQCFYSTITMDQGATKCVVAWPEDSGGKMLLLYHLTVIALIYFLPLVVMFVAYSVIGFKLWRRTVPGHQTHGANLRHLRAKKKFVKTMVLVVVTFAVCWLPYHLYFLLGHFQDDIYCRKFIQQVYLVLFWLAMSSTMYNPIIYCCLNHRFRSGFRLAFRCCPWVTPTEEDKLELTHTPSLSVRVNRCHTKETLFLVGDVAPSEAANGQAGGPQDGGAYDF

[2] = tested on: Substance-P receptor (Oryctolagus cuniculus); test: Binding constant towards tachykinin receptor 1 using ASMSP as agonist on rabbit pulmonary artery tissues.
[3] = Volume distribution at a dose of 10 uM/kg in rat was determined; type: ADME, organism-based; conditions: in vivo, read-out: Vdss
[4] = Plasma clearance in rat at a dose of 10 uM/kg in rat was determined; type: ADME, organism-based; conditions: read-out: Clp
[5] = Tmax by oral administration at a dose of 100 uM/kg in rat was determined; type: ADME, organism-based; conditions: in vivo
[6] = Bioavailability by oral administration at a dose of 10 uM/kg in dog was determined; type: ADME, organism-based, Canis lupus familiaris; conditions: in vivo, read-out: Bioavailabiility
[7] = Bioavailability by oral administration at a dose of 100 uM/kg in rat was determined; type: ADME, organism-based; conditions: in vivo, read-out: Bioavailabiility
[8] = Maximum concentration by oral administration at a dose of 10 umol/kg in dog was determined; type: ADME, organism-based, Canis lupus familiaris; design: dose 10 umol/kg, route oral; conditions: in vivo
Canis familiaris [9] = test: Area under curve by intravenous administration at a dose of 1 uM/kg in dog was determined; type: ADME, organism-based, Canis lupus familiaris; conditions: in vivo
Canis familiaris [10] = test: Area under curve by oral administration at a dose of 10 uM/kg in dog was determined; type: ADME, organism-based, Canis lupus familiaris; conditions: in vivo
[11] = Tmax by oral administration at a dose of 10 uM/kg in dog was determined; type: ADME, organism-based, Canis lupus familiaris; conditions: in vivo
[12] = Maximum concentration by oral administration at a dose of 100 umol/kg in rat was determined; type: ADME, organism-based; design: dose 100 umol/kg, route oral; conditions: in vivo
[13] = Volume distribution at a dose of 1 uM/kg in dog was determined; type: ADME, organism-based, Canis lupus familiaris; conditions: in vivo, read-out: Vdss
[14] = Half life period at a dose of 1 uM/kg in dog was determined; type: ADME, organism-based, Canis lupus familiaris; conditions: in vivo
[15] = Half life period at a dose of 10 uM/kg in rat was determined; type: ADME, organism-based; conditions: in vivo
Rattus norvegicus [16] = test: Area under curve by intravenous administration at a dose of 10 uM/kg in rat was determined; type: ADME, organism-based; conditions: in vivo
Rattus norvegicus [17] = test: Area under curve by oral administration at a dose of 100 uM/kg in rat was determined; type: ADME, organism-based; conditions: in vivo
Neuromedin-K receptor = biological target: T2, Neuromedin-K receptor (Homo sapiens, UniProt P29371); test: Binding affinity against human cloned Tachykinin receptor 3 expressed in MEL cells; type: cell-based
T2 sequence (P29371 whole entry): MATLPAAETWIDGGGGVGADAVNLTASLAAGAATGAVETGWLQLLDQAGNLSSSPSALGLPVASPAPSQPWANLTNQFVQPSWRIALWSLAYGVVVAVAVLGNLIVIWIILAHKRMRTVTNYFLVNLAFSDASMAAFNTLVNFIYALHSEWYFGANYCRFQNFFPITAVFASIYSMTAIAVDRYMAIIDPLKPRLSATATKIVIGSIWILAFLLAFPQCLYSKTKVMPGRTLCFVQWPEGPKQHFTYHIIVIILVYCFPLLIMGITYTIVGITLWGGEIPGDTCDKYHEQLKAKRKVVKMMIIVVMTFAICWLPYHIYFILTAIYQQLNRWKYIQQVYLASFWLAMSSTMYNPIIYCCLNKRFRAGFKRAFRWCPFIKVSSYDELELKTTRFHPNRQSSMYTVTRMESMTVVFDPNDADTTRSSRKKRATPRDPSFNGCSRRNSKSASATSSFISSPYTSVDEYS

Substance-P receptor [18] = biological target: T3, Substance-P receptor (Homo sapiens, UniProt P25103); test: Binding affinity against human cloned Tachykinin receptor 1 expressed in MEL cells; type: cell-based
T3 sequence (P25103 whole entry): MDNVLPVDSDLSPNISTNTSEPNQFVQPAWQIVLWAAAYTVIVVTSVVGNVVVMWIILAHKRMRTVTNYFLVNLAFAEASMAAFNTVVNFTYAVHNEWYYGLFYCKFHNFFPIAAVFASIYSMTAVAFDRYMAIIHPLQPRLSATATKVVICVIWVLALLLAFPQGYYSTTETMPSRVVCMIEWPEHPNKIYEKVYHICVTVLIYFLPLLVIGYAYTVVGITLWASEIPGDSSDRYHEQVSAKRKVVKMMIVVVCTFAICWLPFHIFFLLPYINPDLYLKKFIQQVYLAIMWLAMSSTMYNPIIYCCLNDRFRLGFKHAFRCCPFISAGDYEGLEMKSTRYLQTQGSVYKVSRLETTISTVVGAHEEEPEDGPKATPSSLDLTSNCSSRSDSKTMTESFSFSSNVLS

Substance-K receptor = biological target: T4, Substance-K receptor (Homo sapiens, UniProt P21452); test: Binding affinity against human cloned Tachykinin receptor 2 expressed in MEL cells; type: cell-based
T4 sequence (P21452 whole entry): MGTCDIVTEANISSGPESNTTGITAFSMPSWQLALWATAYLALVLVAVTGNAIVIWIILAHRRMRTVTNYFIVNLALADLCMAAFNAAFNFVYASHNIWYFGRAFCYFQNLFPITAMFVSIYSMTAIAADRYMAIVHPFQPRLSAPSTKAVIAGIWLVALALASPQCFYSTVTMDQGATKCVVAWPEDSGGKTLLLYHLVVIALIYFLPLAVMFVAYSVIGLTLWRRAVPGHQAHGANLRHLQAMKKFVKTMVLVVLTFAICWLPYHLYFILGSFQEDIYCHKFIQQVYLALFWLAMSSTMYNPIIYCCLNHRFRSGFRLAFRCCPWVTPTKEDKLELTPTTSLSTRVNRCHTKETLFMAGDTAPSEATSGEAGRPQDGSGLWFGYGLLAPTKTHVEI

[19] = Half-life period by oral administration at a dose of 10 uM/kg in dog was determined; type: ADME, organism-based, Canis lupus familiaris; conditions: in vivo
[20] = biological target: T1, Substance-K receptor (Oryctolagus cuniculus); test: Binding constant towards Tachykinin receptor 2 using BANK as agonist on rabbit pulmonary artery tissues.
Substance-P receptor [21] = biological target: T3, Substance-P receptor; conditions: Oryctolagus cuniculus; Artery
Description: Binding constant towards Tachykinin receptor 1 using ASMSP as agonist on rabbit pulmonary artery tissues; NA is not active

Substance-P receptor [22] = biological target: T3, Substance-P receptor; conditions: Artery
Description: (§1) Binding constant towards Tachykinin receptor 1 using ASMSP as agonist on human pulmonary artery tissues

[23] = biological target: T5, Substance-K receptor (Homo sapiens) (UniProt P21452); conditions: Bronchus
T5 sequence (whole entry): T4 sequence (P21452 whole entry)
Description: Binding constant towards Tachykinin receptor 2 using NKA as agonist on human bronchus

Substance-P receptor [24] = biological target: T3, Substance-P receptor; conditions: Artery; remark: listed apart in the source
Description: as §1

pKB [1]: inactive
pKB [2]: 6.03
SMILES: CN(C[C@@H](CCN1CCC(c2ccccc2C(F)(F)F)CC1)c1ccc(Cl)c(Cl)c1)C(=O)c1cccc2ccccc12

Vd [3]: 3.7 L/kg
clearance [4]: 32.6 mL/min/kg
Tmax [5]: 2 h
bioavailability [6]: 18%
bioavailability [7]: 9%
Cmax [8]: 364 ng/mL
AUC (Canis familiaris [9]): 1100 ng·h/mL
AUC (Canis familiaris [10]): 2000 ng·h/mL
Tmax [11]: 2 h
Cmax [12]: 421 ng/mL
Vd [13]: 2 L/kg
half-life [14]: 3.8 h
half-life [15]: 1.8 h
AUC (Rattus norvegicus [16]): 3200 ng·h/mL
AUC (Rattus norvegicus [17]): 3010 ng·h/mL
Ki (Neuromedin-K receptor): 74 nM
Ki (Substance-P receptor [18]): 0.1 nM
Ki (Substance-K receptor): 0.6 nM
half-life [19]: 2.3 h
SMILES: CN(C[C@@H](CCN1CCC(c2ccccc2[S@+](C)[O-])CC1)c1ccc(Cl)c(Cl)c1)C(=O)c1cc(C#N)cc2ccccc12 (stereo in doubt) [listing 1 of 2 here]

pKB [20]: 7.1
pKB (Substance-P receptor [21]): inactive
SMILES: CN(C[C@H](CCN1CCC(c2ccccc2[S+](C)[O-])CC1)c1ccc(Cl)c(Cl)c1)C(=O)c1cc(C#N)cc2ccccc12 (stereo partly specified)

pKB [1]: inactive
pKB [2]: 6.28
SMILES: CN(C[C@@H](CCN1CCC(N2C(=O)CCCC2=O)CC1)c1ccc(Cl)c(Cl)c1)C(=O)c1cccc2ccccc12

pKB [20]: 8.26
pKB (Substance-P receptor [22]): 8.9
pKB [23]: 7.5
SMILES: CN(C[C@@H](CCN1CCC(c2ccccc2[S@+](C)[O-])CC1)c1ccc(Cl)c(Cl)c1)C(=O)c1cc(C#N)cc2ccccc12 (stereo in doubt) [listing 2 of 2 here]

pKB [20]: 6.45
pKB [2]: 7.84
SMILES: CN(C[C@@H](CCN1CCC(c2ccccc2[S+](C)[O-])CC1)c1ccc(Cl)c(Cl)c1)C(=O)c1cc(C(F)(F)F)cc2ccccc12 (stereo partly specified)

pKB [20]: 8.51
pKB [2]: 8.13
SMILES: CN(C[C@@H](CCN1CCC(c2ccccc2[S+](C)[O-])CC1)c1ccc(Cl)c(Cl)c1)C(=O)c1cccc2ccc(C#N)cc12 (stereo partly specified)

pKB [20]: 8.41
pKB [2]: 6.82
SMILES: CNC(=O)C1(N2CCCNC2=O)CCN(CC[C@H](CN(C)C(=O)c2cccc3ccccc23)c2ccc(Cl)c(Cl)c2)CC1

pKB [1]: inactive
pKB [2]: 6.98
SMILES: CN(C[C@@H](CCN1CCC(c2ccccn2)CC1)c1ccc(Cl)c(Cl)c1)C(=O)c1cccc2ccccc12

SMILES: COc1cc(C(=O)N2CC[C@](CCN3CCC(C(N)=O)(c4ccccc4)CC3)(c3ccc(Cl)c(Cl)c3)C2)cc(OC)c1OC
Ki (Neuromedin-K receptor): 200 nM
Ki (Substance-P receptor [18]): 0.3 nM
pKB [20]: 6.7
Ki (Substance-K receptor): 1 nM
pKB (Substance-P receptor [24]): 6.9
pKB [23]: 6.4

pKB [20]: 7.67
pKB [2]: 8.15
SMILES: CN(C[C@@H](CCN1CCC(c2ccccc2[S+](C)[O-])CC1)c1ccc(Cl)c(Cl)c1)C(=O)c1cc(Br)cc2ccccc12 (stereo partly specified)

pKB [20]: 7.35
pKB [2]: 7.43
SMILES: CN(C[C@@H](CCN1CCC(c2ccccc2[S+](C)[O-])CC1)c1ccc(Cl)c(Cl)c1)C(=O)c1cc(S(C)(=O)=O)cc2ccccc12 (stereo partly specified)

pKB [20]: 7.24
pKB [2]: 7.24
SMILES: C=C(C)c1cc(C(=O)N(C)C[C@@H](CCN2CCC(c3ccccc3[S+](C)[O-])CC2)c2ccc(Cl)c(Cl)c2)c2ccccc2c1 (stereo partly specified)

pKB [20]: 8.18
pKB [2]: 7.18
SMILES: CC(=O)NC1(c2ccccc2)CCN(CC[C@H](CN(C)C(=O)c2cccc3ccccc23)c2ccc(Cl)c(Cl)c2)CC1

pKB [20]: 7.92
pKB [2]: 7.34
SMILES: CN(C[C@@H](CCN1CCC(N2CCCNC2=O)CC1)c1ccc(Cl)c(Cl)c1)C(=O)c1cccc2ccccc12

pKB [20]: 7.32
pKB [2]: 7.3
SMILES: CN(C[C@@H](CCN1CCC(O)(c2ccccc2[S+](C)[O-])CC1)c1ccc(Cl)c(Cl)c1)C(=O)c1cccc2ccccc12 (stereo partly specified)

pKB [20]: 7.82
pKB [2]: 7.69
SMILES: CN(C[C@@H](CCN1CCC(c2cccnc2[S+](C)[O-])CC1)c1ccc(Cl)c(Cl)c1)C(=O)c1cccc2ccccc12 (stereo partly specified)
